{"source": "paper PMC12458024", "about": "“Stabilizing a Native Fold of Alpha-Synuclein with Short Helix-Constrained Peptides” (JACS Au, 2025)", "key": {"circular dichroism": {"experiment": "circular dichroism", "conditions": "20 mM phosphate; pH 6.5; 30 °C; 20 uM"}, "αS1–140": {"target": "T1, αS1–140 (Homo sapiens, UniProt P37840)", "T1 construct": "pET21a plasmid encoding human wild-type αS1–140; made in house; host or cells: E. coli BL21 (DE3)", "experiment": "Lipid-induced αS aggregation assay (ThT kinetics)", "type": "biochemical", "conditions": "100 μM αS1–140, 50 μM ThT, 50 μM DMPS SUVs, 20 mM phosphate pH 6.5, 30 °C; peptide 100 and 500 μM; n = 3", "procedure": "Dry DMPS lipid powder was accurately weighed using a Sartorius ultramicro balance and dissolved in 20 mM sodium phosphate buffer (pH 6.5) to a final concentration of 2 mM. The lipid was solubilized by shaking in a 2 mL Eppendorf tube on a Thermomixer compact (Eppendorf) at 45 °C, 1400 rpm for 3 h. The solution was then freeze–thawed five times using dry ice and a thermomixer (45 °C, 500 rpm). Vesicle formation was completed by sonication, using a Bandelin Sonopuls sonicator equipped with a TS102 probe, set to 20% amplitude, for 15 cycles (30 s on/30 s off). Vesicles were freshly prepared on the day of use. The SUVs prepared have an average diameter of approximately 30–40 nm, as characterized by dynamic light scattering (DLS) as previously described. This corresponds to vesicle concentrations in the low micromolar range.\nLipid-induced aggregation experiments were monitored using a CLARIOstar fluorescence microplate reader (BMG Labtech) under quiescent conditions (no shaking) at 30 °C. Experiments were conducted in black, clear-bottom 96-well half-area polystyrene plates with a nonbinding surface (Corning #3881), sealed with aluminum Thermowell sealing tape (Corning #6570). Each well contained 100 μL of reaction volume, run in triplicate, comprising 100 μM αS, 50 μM ThT, 50 μM DMPS (monomeric equivalent), 0.01% sodium azide, and varying concentrations of peptide (0 μM to 1 mM), all in 20 mM phosphate buffer (pH 6.5).\nInstrument settings included a focal height of 4.9 mm and a gain of 800, with an excitation filter of 440 ± 15 nm, an emission filter of 480 ± 15 nm, and a 460 nm dichroic cutoff. Readings were collected from the bottom optic using a spiral averaging (4 mm diameter) with 50 flashes per well, and measurements were taken every 1200 s. The outer wells of the plate were not used to avoid evaporation"}, "[1]": {"experiment": "Circular dichroism: fractional helicity with and without DMPS SUVs (lipid binding)", "type": "physicochemical", "conditions": "CD, 20 μM peptide, 20 mM phosphate buffer pH 6.5, 30 °C, mean of three independent measurements; for Fractional helicity (fH) with DMPS: 1000 μM DMPS vesicles; for Fractional helicity (fH) no DMPS: no lipid", "procedure": "Far UV CD spectra scans were then recorded of the solutions on a Chirascan V100 (Applied Photophysics), at 30 °C, in a 1 mm path length quarts cuvette, scanning from 280–190 nm with a 1 nm bandwidth, averaged over 3 scans and blanked against the solutions containing the relevant DMPS vesicles in 20 mM phosphate buffer (pH 6.5).\nFractional helicity (fH) was calculated according to the equation fH=(θ222−θc)/(θ222∞−θc) where θ222∞ = (−44,000 + 250T)*(1 – k/Nr) and θc = 2220 – 53T. In these equations, the wavelength-dependent constant k = 2.4, Nr = the number of residues, and T is the temperature, 30 °C. ,"}, "SH-SY5Y cells [2]": {"tested_on": "SH-SY5Y cells", "experiment": "ToxiLight toxicity assay", "type": "cell-based, human", "conditions": "0–20 μM RhoB-labeled peptide, 30–36 h, Triton X-100 positive control", "procedure": "(§1) SH-SY5Y cells were plated at a density of 5,000 cells well^–1 in a half-area 96-well plate. Twenty-four hours after plating, the media was removed and replaced with media containing 10 or 20 μM of rhodamine-B labeled peptide or the equivalent volume of PBS. Cells were incubated with peptides for a further 30–36 h. As a positive control for cell lysis, 3 wells of cells were treated with 5% Triton-X 100 for 20 min, and then 20 μL of media was harvested from all wells for ToxiLight analysis according to the manufacturer’s instructions (Lonza Biologics PLC, LT07–217). Cells were then washed once with PBS and incubated for 90 min with a 1:10 dilution of AlamarBlue reagent (Invitrogen, DAL1025). Media was harvested and the fluorescence measured according to the manufacturer’s instructions. Cells were then washed twice with PBS and incubated with a 1:12.5 dilution of NucBlue (ThermoFisher Scientific, R37605) and a 1:500 dilution of CellTracker Deep Red (Invitrogen, C34565) in media for a further 30 min. Cells were then washed 2 more times in PBS and imaged."}, "SH-SY5Y cells [3]": {"tested_on": "SH-SY5Y cells", "experiment": "Alamar Blue toxicity assay", "type": "cell-based, human", "conditions": "0–20 μM RhoB-labeled peptide, 30–36 h, relative to untreated controls", "procedure": "as §1"}, "[4]": {"experiment": "Peptide stability in human serum", "type": "in vitro ADME", "conditions": "normal human serum, 30 μM peptide, 37 °C, analytical HPLC peak area normalized to t = 0, triplicate; read-out: Peptide remaining intact in human serum at 48 h", "procedure": "Serum stability assays were performed in normal human serum. Peptide stocks were initially prepared at 600 μM in H2O, and 75 μL of this stock was added to 1425 μL of normal human serum (Merck), yielding a final concentration of 30 μM. Samples were incubated at 37 °C, and 100 μL aliquots were collected at designated time points (0, 1, 2, 3, 4, 6, 22, 24, and 48 h) and then immediately stored at −80 °C. After all time points, the samples were thawed and mixed with 300 μL of acetonitrile:water (3:1, v/v) by vortexing to ensure complete mixing. Following centrifugation at 14500 rpm for 20 min, 200 μL of the supernatant was analyzed by HPLC using a Phenominex Luna 5 μm C18 100 Å analytical column, eluted with a 0–50% acetonitrile gradient containing 0.1% TFA. Peak areas were integrated and normalized to the 0-h sample. Each peptide was tested in triplicate."}, "N2 C. elegans": {"tested_on": "N2 C. elegans", "conditions": "dosed at L4, 0–100 μM, day 5 of adulthood", "protocol": "The C. elegans strain N2 was used as the control, while the transgenic strain NL5901 (unc-54p::αS::YFP), which expresses αS fused to YFP in the body wall muscle cells, was used to model the PD motility phenotype. Worms were synchronized by bleaching with sodium hypochlorite, and the eggs were resuspended in M9 buffer and incubated overnight at 20 °C with shaking (50 rpm) to hatch. Larvae were then transferred to nematode growth medium (NGM) agar plates seeded with E. coli OP50 as a food source and incubated in the dark at 20 °C until they reached the L4 stage.\nL4-stage worms were transferred to fresh NGM agar plates containing 75 μM 5-fluoro-2’deoxyuridine (FUdR), to prevent reproduction, and seeded with E. coli OP50 as a food source. […] Nematodes were incubated in the dark at 20 °C for 5 days. Following incubation, 15 worms per condition were picked using a worm pick and placed in a drop of M9 media on a microscope slide. Movements were recorded immediately for a period of 30 s. For each condition, 5 worms per video were manually scored for the number of body bends per minute. […] A body bend was defined as a full oscillation, where the head returned to a point on the same side."}}, "note": "“Also recorded” adds a separate entry of the source. Positions of bridges follow the written chain, without caps; N, C: chain ends. Residues, ends and D or L forms follow the SMILES beside them.", "data": [{"smiles": "CSCC[C@H](NC(=O)[C@H](Cc1ccccc1)NC(=O)[C@@H](NC(=O)[C@H](CC(=O)O)NC(C)=O)C(C)C)C(=O)N[C@@H](CCCCN)C(=O)NCC(=O)N[C@@H](CC(C)C)C(=O)N[C@@H](CO)C(=O)N[C@@H](CCCCN)C(=O)N[C@@H](C)C(=O)N[C@@H](CCCCN)C(N)=O", "note": "(Ac-DVFMKGLSKAK-NH2)", "values": [{"measurement": "helicity", "setting": "circular dichroism", "result": 8.1, "unit": "%"}]}, {"smiles": "CSCC[C@@H]1NC(=O)[C@H](Cc2ccccc2)NC(=O)[C@H](C(C)C)NC(=O)[C@@H](NC(C)=O)CCCCNC(=O)C[C@@H](C(=O)NCC(=O)N[C@@H](CC(C)C)C(=O)N[C@@H](CO)C(=O)N[C@@H](CCCCN)C(=O)N[C@@H](C)C(=O)N[C@@H](CCCCN)C(N)=O)NC1=O", "note": "[αS2–12(L1)] (Ac-KVFMDGLSKAK-NH2; lactam 1-5)", "values": [{"measurement": "Effect on lipid-induced αS1–140 aggregation (ThT)", "setting": "αS1–140", "result": "enhanced αS aggregation"}, {"measurement": "Fractional helicity (fH) with DMPS", "setting": "[1]", "result": 0.0, "unit": "%"}, {"measurement": "Fractional helicity (fH) no DMPS", "setting": "[1]", "result": 0.0, "unit": "%"}]}, {"smiles": "CSCC[C@@H]1NC(=O)[C@H](Cc2ccccc2)NC(=O)[C@@H](NC(=O)[C@H](CC(=O)O)NC(C)=O)CCCCNC(=O)C[C@@H](C(=O)N[C@@H](CC(C)C)C(=O)N[C@@H](CO)C(=O)N[C@@H](CCCCN)C(=O)N[C@@H](C)C(=O)N[C@@H](CCCCN)C(N)=O)NC(=O)[C@H](CCCCN)NC1=O", "note": "[αS2–12(L2)] (Ac-DKFMKDLSKAK-NH2; lactam 2-6)", "values": [{"measurement": "Effect on lipid-induced αS1–140 aggregation (ThT)", "setting": "αS1–140", "result": "most effective inhibition"}, {"measurement": "Fractional helicity (fH) with DMPS", "setting": "[1]", "result": 14.5, "unit": "%"}, {"measurement": "Fractional helicity (fH) no DMPS", "setting": "[1]", "result": 30.9, "unit": "%"}]}, {"smiles": "CSCC[C@@H]1NC(=O)[C@@H](NC(=O)[C@@H](NC(=O)[C@H](CC(=O)O)NC(C)=O)C(C)C)CCCCNC(=O)C[C@@H](C(=O)N[C@@H](CO)C(=O)N[C@@H](CCCCN)C(=O)N[C@@H](C)C(=O)N[C@@H](CCCCN)C(N)=O)NC(=O)CNC(=O)[C@H](CCCCN)NC1=O", "note": "[αS2–12(L3)] (Ac-DVKMKGDSKAK-NH2; lactam 3-7)", "values": [{"measurement": "Effect on lipid-induced αS1–140 aggregation (ThT)", "setting": "αS1–140", "result": "most effective inhibition; also recorded: greatest inhibition of αS1–140 aggregation"}, {"measurement": "Fractional helicity (fH) with DMPS", "setting": "[1]", "result": 2.9, "unit": "%"}, {"measurement": "Fractional helicity (fH) no DMPS", "setting": "[1]", "result": 14.6, "unit": "%"}]}, {"smiles": "CC(=O)N[C@@H](CC(=O)O)C(=O)N[C@H](C(=O)N[C@@H](Cc1ccccc1)C(=O)N[C@H]1CCCCNC(=O)C[C@@H](C(=O)N[C@@H](CCCCN)C(=O)N[C@@H](C)C(=O)N[C@@H](CCCCN)C(N)=O)NC(=O)[C@H](CC(C)C)NC(=O)CNC(=O)[C@H](CCCCN)NC1=O)C(C)C", "note": "[αS2–12(L4)] (Ac-DVFKKGLDKAK-NH2; lactam 4-8)", "values": [{"measurement": "Effect on lipid-induced αS1–140 aggregation (ThT)", "setting": "αS1–140", "result": "enhanced αS aggregation"}, {"measurement": "Fractional helicity (fH) with DMPS", "setting": "[1]", "result": 27.7, "unit": "%"}, {"measurement": "Fractional helicity (fH) no DMPS", "setting": "[1]", "result": 12.4, "unit": "%"}]}, {"smiles": "CSCC[C@H](NC(=O)[C@H](Cc1ccccc1)NC(=O)[C@@H](NC(=O)[C@H](CC(=O)O)NC(C)=O)C(C)C)C(=O)N[C@H]1CCCCNC(=O)C[C@@H](C(=O)N[C@@H](C)C(=O)N[C@@H](CCCCN)C(N)=O)NC(=O)[C@H](CO)NC(=O)[C@H](CC(C)C)NC(=O)CNC1=O", "note": "[αS2–12(L5)] (Ac-DVFMKGLSDAK-NH2; lactam 5-9)", "values": [{"measurement": "Fractional helicity (fH) with DMPS", "setting": "[1]", "result": 3.3, "unit": "%"}, {"measurement": "Fractional helicity (fH) no DMPS", "setting": "[1]", "result": 28.9, "unit": "%"}]}, {"smiles": "CSCC[C@H](NC(=O)[C@H](Cc1ccccc1)NC(=O)[C@@H](NC(=O)[C@H](CC(=O)O)NC(C)=O)C(C)C)C(=O)N[C@@H](CCCCN)C(=O)N[C@H]1CCCCNC(=O)C[C@@H](C(=O)N[C@@H](CCCCN)C(N)=O)NC(=O)[C@H](CCCCN)NC(=O)[C@H](CO)NC(=O)[C@H](CC(C)C)NC1=O", "note": "[αS2–12(L6)] (Ac-DVFMKKLSKDK-NH2; lactam 6-10)", "values": [{"measurement": "Cytotoxicity, ToxiLight", "setting": "SH-SY5Y cells [2]", "result": "No significant toxicity"}, {"measurement": "Cytotoxicity, Alamar Blue", "setting": "SH-SY5Y cells [3]", "result": "No significant toxicity"}, {"measurement": "remaining at 48 h, 30 μM", "setting": "[4]", "result": 16, "unit": "%"}, {"measurement": "helicity", "setting": "circular dichroism", "result": 31.4, "unit": "%"}, {"measurement": "Thrashing rate of wild-type N2 worms", "setting": "N2 C. elegans", "result": "no change in thrashing rate"}]}, {"smiles": "CSCC[C@H](NC(=O)[C@H](Cc1ccccc1)NC(=O)[C@@H](NC(=O)[C@H](CC(=O)O)NC(C)=O)C(C)C)C(=O)N[C@@H](CCCCN)C(=O)NCC(=O)N[C@H]1CCCCNC(=O)C[C@@H](C(N)=O)NC(=O)[C@H](C)NC(=O)[C@H](CCCCN)NC(=O)[C@H](CO)NC1=O", "note": "[αS2–12(L7)] (Ac-DVFMKGKSKAD-NH2; lactam 7-11)", "values": [{"measurement": "Effect on lipid-induced αS1–140 aggregation (ThT)", "setting": "αS1–140", "result": "enhanced αS aggregation"}, {"measurement": "Fractional helicity (fH) with DMPS", "setting": "[1]", "result": 16.8, "unit": "%"}, {"measurement": "Fractional helicity (fH) no DMPS", "setting": "[1]", "result": 15.8, "unit": "%"}]}]}
